Test results reported in patent US20070161644A1, “Erastin analogs and uses thereof” (priority 2005, published 2007).

Assays:
HT-1080 xenografts = assay: HT-1080 tumor treatment study; assay type: in vivo, mouse; details: nude Balb/c mice; 100 or 50 mg/Kg, QD×5 days, IP
Description: Nude Balb/c (Nu/Nu strain, Charles River Laboratories), female, 5-6 week. old (˜20 g average body weight).
Both compounds were formulated in an identical manner. For the 100 mg/kg dose level, each compound was delivered at a concentration of 10.0 mg/ml, in an injection volume of 0.2 ml. For the 50 mg/kg dose level, each compound was delivered at a concentration of 5.0 mg/ml, in an injection volume of 0.2 ml. For both dose levels, the vehicle contained 0.025% Tween-80, 0.01% benzyl alcohol, 35 mM acetic acid (HOAc), 100 mM potassium phosphate buffer, and 32 mM sucrose, pH=6.5.
Beginning when the mean tumor volume reached ˜200 mm^3, and continuing through day 5, every day, each animal was administered a single IP injection of one of the above treatments, for a total of 5 doses.
Each of 70 mice was implanted with 1×10^7 HT-1080 cells by SC injection of 0.1 cc of inoculum into the right hind flank. A 25 G×⅝″ needle size was used. […]
Starting on Day 1, all animals were weighed, and tumor dimensions (length (L) and width (W)) were measured, every other day. […]
The resulting tumor volume values were averaged for each study group for each time point, and were then plotted against time. Variance was expressed as standard error of the mean (±SEM).

BJELR = assay: Sytox primary screen; assay type: cell-based; details: Homo sapiens, Sytox screen, 48 hours, read-out: IC50 in BJELR
Source text: The Sytox primary screen is a phenotypic assay which monitors alterations in cell survival-proliferation as a result of compound treatment. It was devised as high throughput method to identify compounds which specifically alter the growth potential of cells harboring the causative mutations found in cancer patients while not affecting the growth of normal cells.
The assay relies upon an inexpensive, simple and reliable readout of a membrane impermeable fluorescent dye (Sytox, from Molecular Probes) which binds to nucleic acid. In healthy cells, no signal is detected because the cell's membrane is intact and the dye will not enter. However, if a cell's membrane is compromised as a result of apoptosis or necrosis, a fluorescent signal proportional to the number of similarly affected cells will be detected. By utilizing a two-step readout (final read in the presence of detergent to permit labeling of all cells), the assay can identify compounds which produce cytostasis, cytotoxicity and/or mitogenesis. The first read or “dead cell” read provides an estimate of the toxicity of a given compound by indicating the number of dead or dying cells in the culture at the time of assay. The second read or “total cell” read captures both the cumulative effects of cytoxicity in reducing the size of the cell population as well as any cytostatic or anti-proliferative effects a test compound may exert on the cells in the test population in the absence of toxicity.
For the purpose of screening, the previously described BJ-TERT line was defined as the “normal” reference cell line and BJ-TERT/LT/ST/RAS^V12 cells were the tumorigenic cell line. Cells were seeded overnight in 96 well plates at densities which without treatment would permit 95% confluence in the wells 72 H later. The following day, the cells were exposed to test compounds in a dilution series for a period of 48 hours. Following this incubation period, the Sytox reagent was added to the cultures at the manufacturer's recommended concentration and the dead cell fluorescence read was taken. After completion of this measurement, the detergent Saponin was added to each well of the cultures to permeabilize the membranes allowing the Sytox reagent to enter every cell thereby, facilitating measurement of the total number of cells remaining in the culture.

PANC-1 xenografts = assay: PANC-1 tumor treatment study; assay type: in vivo; details: immunodeficient nude mouse; once a day for five consecutive days
Description: The experimental plan for the PANC-1 study was essentially identical to that of the HT-1080 study outlined above in Example 10 with the following exceptions: approximately 30-40 mg fragment of passaged PANC-1 tumor tissue was implanted subcutaneously in the right flank of an immunodeficient nude mouse. Tumor growth was monitored daily and when the tumors reached approximately 100 mm^3, animals harboring similarly sized tumors were group matched and compound dosing was initiated. Administration of compound 5 occurred once a day for five consecutive days at the doses listed below. In the PANC-1 xenografts, gemcitabine, administered at the maximum tolerated dose for the model, was used as a control. The gemcitabine regimen was 180 mg/kg […] on every third day over a period of 9 days.

[1] = tested on: BJ-TERT/LT/ST/RAS^V12 cells relative to BJ-TERT cells; assay: Alamar Blue viability assay, tumorigenic versus wild type cells; assay type: cell-based, human
Description: Alamar Blue is reduced by mitochondrial enzyme activity in viable cells, causing both colorimetric and fluorescent changes (Nociari et al., 1998, J. Immunol. Methods 13, 157-167). Cells were seeded at a density of 6000 cells (50 μl) per well in a 384-well black, clear bottom plate using a syringe bulk dispenser (Zymark). 10 μl was removed from a two-fold serially diluted erastin plate (6× final concentration) using a 384 fixed cannula head, making the final concentration 20 μg/ml in the well with highest concentration. The plates were incubated for 24 hours. Alamar Blue (Biosource International) was added to each well by diluting 1:10 and incubated for 16 hours at 37° C. Fluorescence intensity was determined using a Packard Fusion platereader with an excitation filter centered on 535 nm and an emission filter centered on 590 nm. Average percentage inhibition at each concentration was calculated. Error bars indicate one standard deviation.
The effect of erastin or erastin B on cell viability was measured using Alamar Blue as described in Example 3 in both tumorigenic BJ-TERT/LT/ST/RAS^V12 (BJELR) cells and wild type BJ-TERT (BJEH) cells. In this example, cell viability was measured at 1, 2, and 3 days after treatment with erastin or erastin B (data for days 1 and 3 not shown). Average percentage inhibition at each concentration was measured.
The effect on cell viability of each of the two isomers of Compound 20 was measured using the Alamar Blue assay described in Example 3 in both tumorigenic BJ-TERT/LT/ST/RAS^V12 cells and wild type BJ-TERT cells. Average percentage inhibition at each concentration was measured.
The effect on cell viability of erastin or Compound 21 was measured using the Alamar Blue assay as described in Example 3 in both tumorigenic BJ-TERT/LT/ST/RAS^V12 cells and in wild type BJ-TERT cells. Average percentage inhibition at each concentration was measured. […]

[2] = tested on: BJ-TERT/LT/ST/RAS^V12 cells; assay: Annexin V-FITC apoptosis assay; assay type: cell-based, human; details: erastin-treated (9 μM); untreated 6%
Description: BJ-TERT/LT/ST/RAS^V12 cells were seeded at 1×10^6 cells per dish in 100 mm dishes and allowed to grow overnight. Cells were treated with erastin (5 or 10 μg/ml) for 6, 8 or 11 h. A camptothecin-treated (0.4 μg/ml) control was maintained, treated at the time of seeding for 20 hours. After the treatment, cells were harvested with trypsin/EDTA and washed once with fresh medium containing serum and then twice with phosphate buffered saline. Cells were resuspended in 1× binding buffer (BD Pharmingen) at a concentration of 1×10^6 cells/ml. 100 μl (1×10^5 cells) was incubated with 5 μl of Annexin V-FITC (BD Pharmingen) and propidium iodiode (BD Pharmingen) for 15 minutes in the dark at room temperature. Then 400 μl of the 1× binding buffer was added and the cells analyzed by flow cytometry (Becton-Dickinson). Data were acquired and analyzed using Cellquest software.

[3] = tested on: BJ-TERT/LT/ST/RAS^V12 cells; assay: Calcein AM viability assay, dilution series; assay type: cell-based, human; details: within 18 hours; BJ-TERT/LT/ST/RAS^V12 cells
Description: Described here is work carried out to identify compounds with increased potency or activity in the presence of hTERT, LT, ST, E6, E7 or RAS^V12. Although the work described herein made use of hTERT, LT, ST, E6, E7 and RAS^V12 as transforming genes, future studies can make use of a wide variety of cancer-associated alleles using this methodology in order to define the signaling networks that involve many oncogenes and tumor suppressors. […] Cell viability was measured using the dye calcein acetoxymethyl ester (calcein AM) (Wang et al., 1993, Hum. Immunol. 37, 264-270), which is a non-fluorescent compound that freely diffuses into cells. […]
Calcein acetoxylmethyl ester (AM) is a cell membrane-permeable, non-fluorescent compound that is cleaved by intracellular esterases to form the anionic, cell-impermeable, fluorescent compound calcein. […] Total fluorescence intensity in each well was recorded on a Packard Fusion platereader, and converted to a percent inhibition of signal by subtracting the instrument background and dividing by the average signal obtained when cells were not treated with any compound. […]
Mean RFU (relative fluorescence units) for untreated cells was calculated by averaging columns 1, 2, and 23 (wells with cells but lacking compounds). The calcein background was calculated by averaging column 24 (wells with calcein, but lacking cells). […]

Structure (SMILES) | IC50 (BJELR) [µM] | also measured
CCOc1ccccc1-n1c(C(C)N2CCNCC2)nc2ccccc2c1=O (centres unmarked) [Compound 6] | ≥ 1 | antitumor activity in HT-1080 xenografts (HT-1080 xenografts): tumor growth inhibition; antitumor activity in PANC-1 xenografts (PANC-1 xenografts): tumor growth inhibition
CCOc1ccccc1-n1c(CN2CCN(CC#N)CC2)nc2ccccc2c1=O [Compound 7] | ≥ 0.1 | –
CCOc1ccccc1-n1c(C(C)N2CCN(C)CC2)nc2ccccc2c1=O (centres unmarked) [Compound 8] | ≥ 1 | –
CCOc1ccccc1-n1c(C(C)N2CCN(CCO)CC2)nc2ccccc2c1=O (centres unmarked) [Compound 9] | ≥ 1 | –
CCOc1ccccc1-n1c(CN2CCN(C)CC2)nc2ccccc2c1=O [Compound 10] | ≥ 1 | –
CCOc1ccccc1-n1c(CN2CCN(CC)CC2)nc2ccccc2c1=O [Compound 11] | ≥ 0.1 | –
CCOc1ccccc1-n1c(CN2CCCN(C)CC2)nc2ccccc2c1=O [Compound 12] | < 0.1 | –
CCOc1ccccc1-n1c(CN2CCCNCC2)nc2ccccc2c1=O [Compound 13] | < 0.1 | –
CCOc1ccccc1-n1c(C(C)N2CCNCC2)nc2cc(Cl)ccc2c1=O (centres unmarked) [Compound 14] | ≥ 0.1 | –
O=c1c2ccccc2nc(CN2CCNCC2)n1-c1c(Cl)cccc1Cl [Compound 16] | ≥ 0.1 | –
CCN1CCN(Cc2nc3ccccc3c(=O)n2-c2c(Cl)cccc2Cl)CC1 [Compound 17] | ≥ 0.1 | –
CCOc1ccccc1-n1c(CN2CCN(C(=O)COc3ccc(Cl)cc3)CC2)nc2ccccc2c1=O [Compound 21, 2-({4-[(4-chlorophenoxy)acetyl]piperazin-1-yl}methyl)-3-(2-ethoxyphenyl)quinazolin-4(3H)-one] | – | lethality in BJ-TERT/LT/ST/RAS^V12 (BJELR) cells compared to BJ-TERT (BJEH) cells [1]: selective lethality; profile compared to erastin ([1]; both cell types): profile nearly identical to that of erastin
CCOc1ccccc1-n1c(C(C)N2CCN(C(=O)COc3ccc(Cl)cc3)CC2)nc2ccccc2c1=O (centres unmarked) [Erastin, 2-[1′-(N-(4″-chlorophenoxyacetyl)-N-piperazino]-ethyl]-3-(2′″-ethoxyphenyl)-quinazolin-4-one] | – | percentage of cells in M1 region (Annexin V staining) [2]: 6%; effectiveness (cell death) [3]: 100%
